Several values for one entry are separate records, joined by “and”; a condition that tells them apart may be missing. Equal entries are not always repeated. Entries after “also recorded” stand apart in the source; their conditions may differ.
Tests used:
rat uterus [1] = assay: Uterotrophic test, subcutaneous (Compound 2 vs. DHEA); format: in vivo; conditions: n = 4 or 5
Experimental: Twenty-two day old rats were obtained from Charles River Laboratories. Animals were used at 29 days of age. Test steroids were suspended by homogenization in sesame oil. Rats were orally intubated at 1-2 P.M. for 3 days with a test steroid in sesame oil or with sesame oil alone (control). On the 4th day the animals were killed and the uteri were removed and weighed.
Compound 2 vs. DHEA. Compounds Administered by Subcutaneous Injection
Steroids were dissolved in 2 ml ethanol and brought up to 5 ml volume with propylene glycol. Concentrations were such that 1 μl/gm body weight delivered the indicated dose.

rat uterus [2] = assay: Estrogenic and anti-estrogenic activity (uterine weight, s.c., CD rats); format: in vivo, rat (female CD); conditions: for Mean Uterine Weight ± S.D.: 3 days, DHEA vs 16 experiment; for estrogenic / anti-estrogenic effect, uterine weight (in words): s.c., 60 mg/kg or higher, female CD rats
Experimental: Female CD rats, 26-27 days old, were used. Rats were injected subcutaneously for 3 days with either DHEA or 16 in propylene glycol. Control rats received propylene glycol alone. The rats were killed on the 4th day and the uteri were removed and weighed.
Female CD rats, 26-27 days old, were injected subcutaneously for 3 days with one of the compounds of the present invention at 60 mg/kg in propylene glycol. Controls received propylene glycol alone. On the 4th day the rats were killed and the uteri were dissected out and weighed.

[3] = test system: cultured rat kidney epithelial cell line; conditions: cited from earlier work
[4] = test system: TPA (Tumor Promoter) Stimulation of Mouse Epidermal DNA; assay: Inhibition of TPA stimulation of mouse epidermal DNA synthesis (3H-thymidine incorporation), oral; format: in vivo, mouse (ICR male)
Procedure, shortened: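 Shaved male ICR mice (7-9 weeks) got steroid orally in sesame oil (0.5 ml/mouse), then topical TPA (10 μg in acetone) 1 h later. After 20 h, i.p. 60 μCi ³H-thymidine 20 min before sacrifice; epidermal DNA labelling expressed as cpm per μg DNA (diphenylamine assay).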

C57BL/KsJ-db/db mice [5] = assay: Anti-hyperglycemic activity (blood glucose); format: in vivo, mouse (C57BL/KsJ-db/db); conditions: for blood glucose lowering compared with DHEA (in words): compound 16 0.2% vs DHEA 0.4% of diet
Experimental: C57BL/KsJ-db/db 8 week old female mice were obtained and housed in polycarbonate cages in animal quarters maintained at 24° C. with 12 h of light and 12 h of darkness each day.
Mice were placed on a control chow or a chow diet containing either 0.4% DHEA or 0.2% of compound 16.
For determination of blood glucose levels, mice were bled from the orbital sinus using a heparinized capillary tube. 0.2 ml of blood was added to 1.8 ml of water to hemolyze the blood and glucose concentration was determined using the glucose oxidase assay.

C57BL/KsJ-db/db mice [6] = conditions: 0.4% of the diet; cited from earlier work
[7] = test system: DMBA-initiated and TPA-promoted skin papilloma formation in mice; conditions: mouse, in vivo; cited from earlier work
[8] = test system: breast, lung, and colon tumors; conditions: approximately 400 mg/kg daily, long-term; cited from earlier work

C[C@]12CC[C@H](O)CC1=CC[C@@H]1[C@@H]2CC[C@]2(C)C(=O)CC[C@@H]12 [DHEA, 3β-Hydroxy-5-androst-en-17-one, reference compound]
Mean Uterine Weight (rat uterus [1]; 10 mg/kg s.c.): 152 ± 17 Mgs
Mean Uterine Weight (rat uterus [1]; 60 mg/kg s.c.): 290 ± 72 Mgs
Mean Uterine Weight ± S.D. (rat uterus [2]; 60 mg/kg s.c.): 222 ± 77 mg/100 gm body weight
TPA stimulation of 3H-thymidine incorporation (in words) [3]: antagonizes the capacity of the tumor promoter
blocking the TPA stimulation in DNA synthesis rate (in words) ([4]; 200 mg/kg or 100 mg/kg oral): not at 200 mg/kg or 100 mg/kg
blocking the TPA stimulation in DNA synthesis rate (in words) ([4]; 400 mg/kg oral): active at blocking the TPA stimulation in DNA synthesis rate at 400 mg/kg
TPA stimulation in 3H-thymidine incorporation (in words) ([4]; oral, single administration): does not inhibit the TPA stimulation in epidermal ^3 H-thymidine incorporation to a degree comparable; also recorded: inactive
Blood Glucose Levels (C57BL/KsJ-db/db mice [5]; 0.4% of diet, week 0): 214 ± 59 mg/deciliter and 232 ± 28 mg/deciliter
Blood Glucose Levels (C57BL/KsJ-db/db mice [5]; 0.4% of diet, week 1): 161 ± 19 mg/deciliter and 132 ± 14 mg/deciliter
Blood Glucose Levels (C57BL/KsJ-db/db mice [5]; 0.4% of diet, week 2): 145 ± 19 mg/deciliter and 135 ± 37 mg/deciliter
Blood Glucose Levels (C57BL/KsJ-db/db mice [5]; 0.4% of diet, week 3): 117 ± 12 mg/deciliter
Blood Glucose Levels (C57BL/KsJ-db/db mice [5]; 0.4% of diet, week 4): 112 ± 4 mg/deciliter
Anti-diabetic Activity relative to DHEA (C57BL/KsJ-db/db mice [5]; Table 15, DHEA = 1×): 1 ×
Blood Glucose Levels (C57BL/KsJ-db/db mice [5]; after 0.4% of diet, 24 hrs. on control diet): 192 ± 32 mg/deciliter
Blood Glucose Levels (C57BL/KsJ-db/db mice [5]; after 0.4% of diet, 48 hrs. on control diet): 310 ± 37 mg/deciliter
hypoglycemic effect (in words) (C57BL/KsJ-db/db mice [6]): marked hypoglycemic effect
lifespan (in words) (C57BL/KsJ-db/db mice [6]): significantly prolonged their lifespan
inhibition of DMBA-initiated and TPA-promoted skin papilloma formation (in words) [7]: inhibit
tumor development (in words) [8]: inhibit the development of breast, lung, and colon tumors

C[C@H]1CC[C@@]2(C)C(=CC[C@@H]3[C@@H]2CC[C@]2(C)C(=O)CC[C@@H]32)C1 [Compound 16, 3β-methyl-5-androsten-17-one]
Mean Uterine Weight ± S.D. (rat uterus [2]; 60 mg/kg s.c.): 126 ± 87 mg/100 gm body weight
Mean Uterine Weight ± S.D. (rat uterus [2]; 120 mg/kg s.c.): 111 ± 27 mg/100 gm body weight
estrogenic / anti-estrogenic effect, uterine weight (in words) (rat uterus [2]; 60 mg/kg): reduction in uterine weight; also recorded: apparently acts as an anti-estrogen
estrogenic / anti-estrogenic effect, uterine weight (in words) (rat uterus [2]; listed as cmpd. 16, 60 mg/kg): significantly greater than that of the cmpd. 21 treated rats; also recorded: highly significant anti-estrogenic activity
activity relative to DHEA (TPA stimulation of epidermal DNA synthesis) ([4]; oral dose-response, as active as DHEA): about 3 X
Blood Glucose Levels (C57BL/KsJ-db/db mice [5]; 0.2% of diet, week 0, listed as Cpd 16): 216 ± 61 mg/deciliter
Blood Glucose Levels (C57BL/KsJ-db/db mice [5]; 0.2% of diet, week 0, listed as Cpd. 16): 244 ± 32 mg/deciliter
Blood Glucose Levels (C57BL/KsJ-db/db mice [5]; 0.2% of diet, week 1, listed as Cpd 16): 135 ± 15 mg/deciliter
Blood Glucose Levels (C57BL/KsJ-db/db mice [5]; 0.2% of diet, week 1, listed as Cpd. 16): 143 ± 21 mg/deciliter
Blood Glucose Levels (C57BL/KsJ-db/db mice [5]; 0.2% of diet, week 2, listed as Cpd 16): 118 ± 12 mg/deciliter
Blood Glucose Levels (C57BL/KsJ-db/db mice [5]; 0.2% of diet, week 2, listed as Cpd. 16): 134 ± 13 mg/deciliter
Blood Glucose Levels (C57BL/KsJ-db/db mice [5]; 0.2% of diet, week 3): 102 ± 8 mg/deciliter
Blood Glucose Levels (C57BL/KsJ-db/db mice [5]; 0.2% of diet, week 4): 105 ± 5 mg/deciliter
Blood Glucose Levels (C57BL/KsJ-db/db mice [5]; after 0.2% of diet, 24 hrs. on control diet): 147 ± 10 mg/deciliter
Blood Glucose Levels (C57BL/KsJ-db/db mice [5]; after 0.2% of diet, 48 hrs. on control diet): 262 ± 23 mg/deciliter
blood glucose lowering compared with DHEA (in words) (C57BL/KsJ-db/db mice [5]): more effective in lowering blood glucose concentration
blood glucose lowering compared with DHEA (in words) (C57BL/KsJ-db/db mice [5]; listed as compound 16): significantly more slowly in the mice that had received compound 16
inhibition of DMBA-initiated and TPA-promoted skin papilloma formation (in words) [7]: inhibit
